# Assay results: US20190125735A1, “INHIBITION OF P38 MAPK FOR THE TREATMENT OF CANCER” (Board of Regents, The University of Texas System, priority 2015, published 2019)
# How the values were obtained:
# Assay type in all cases: cell-based, human
# [1] = system: DU145 cells; experiment: Wound healing assay, DU145 cells; conditions: DU145, 5 μM, 7 days
# Protocol: (§1) Immunoblotting, Immunofluorescence, RTPCR, wound healing- and tumorsphere assays were performed as previously described (Sarkar et al., 2015). Cell viability (MTS) was assessed using the CellTiter96 Aqueous One-Solution Cell Proliferation Assay kit (Promega).
# [2] = system: HMLE-Snail, HMLE-Twist, MDA-MB-231 and SUM159 cells; experiment: EMT marker immunoblotting in mesenchymal mammary cells; conditions: relative to vehicle-treated cells
# Protocol: It was next ascertained whether p38 inhibition compromises the maintenance of the established EMT phenotype.
# Immunoblotting and immunofluorescence (Mani et al., 2008) were performed as previously described. Primary antibodies were as follows: β-actin (Sigma, St Louis, Mo., USA; A3853), mouse anti-human FOXC2 (Dr. Naoyuki Miura, Hamamatsu University School of Medicine, Japan), goat polyclonal anti-FOXC2 (Santa Cruz Biotechnology, Dallas, Tex., USA; sc-21397), p-p38 (Cell Signaling, Danvers, Mass., USA; 4511), p38 (Cell Signaling; 9211), E-cadherin (BD Biosciences, San Jose, Calif., USA; 61081), fibronectin (BD Biosciences; 610077), vimentin (Novus Biologicals, Littleton, Colo., USA; NB200-623), ZEB1 (Novus Biologicals; NBP1-05987), and HA (Covance, Princeton, N.J., USA; MMS-101P).
# [3] = system: MCF10A cells; experiment: TGFβ1-induced EMT in MCF10A cells, immunoblotting; conditions: TGFβ1-treated MCF10A, concomitant SB203580, 3 days
# Protocol: To ascertain whether inhibiting p38 impedes the initiation of EMT, two dynamic models of EMT induction were utilized. First, MCF10A immortalized human mammary epithelial cells were treated with TGFβ1 which elicits EMT. […] Second, an inducible EMT system was used wherein a fusion protein, comprising the EMT-inducing transcription factors Snail or Twist and the estrogen-binding domain of the estrogen receptor (ER), is stably expressed in epithelial HMLE cells (HMLE-Snail-ER, HMLE-Twist-ER). Addition of the ER-ligand tamoxifen (4-OHT) promotes nuclear translocation of the Snail-ER and Twist-ER proteins and elicits EMT. […] Similarly, p38 shRNA abolished the capacity of HMLE-Twist-ER cells to undergo EMT (FIG. 4E, compare lanes 4 to 8) and to form spheres (FIG. 16F) in response to 4-OHT treatment.
# Immortalized human mammary epithelial (HMLE) cells expressing empty vector (pWZL), Snail, Twist, Goosecoid (GSC), or an activated form of TGFβ1, V12H-Ras-transformed HMLE (HMLER) and HMLER-FOXC2 cells were maintained as previously described (Elenbaas et al., 2001) For 4-hydroxy-tamoxifen (4-OHT) treatment, HMLE-Snail-ER or HMLE-Twist-ER cells were exposed to 20 nM 4-OHT for the indicated number of days. MCF7, MDA-MB-231 and SUM159 human breast cancer cells and the 4T1 mouse mammary carcinoma cells were cultured as described. […]
# [4] = system: HMLE-Snail and HMLE-Twist cells; experiment: Invadopodia formation, degradation of FITC-conjugated gelatin; conditions: within 16 h, vs vehicle-treated cells
# Protocol: FIGS. 15A-15L: p38 inhibition compromises the acquisition and maintenance of EMT and stem cell properties in vitro. […] Cells were harvested and the corresponding lysates were analyzed by immunoblotting for FOXC2, E-cadherin and mesenchymal markers. β-actin was used as a loading control. […] Cells were harvested at the indicated timepoints and the corresponding lysates were analyzed by immunoblotting for FOXC2, E-cadherin and mesenchymal markers. β-actin was used as a loading control. […] One thousand cells were seeded per well in ultra-low attachment plates and cultured for 7-10 days. Spheres with a diameter greater than 75 μm were counted. The data are reported as the number of spheres formed/1000 seeded cells±SEM. […] Data are presented as mean±SEM. […] The corresponding lysates were analyzed by immunoblotting for FOXC2, E-cadherin and mesenchymal markers. β-actin was used as a loading control. (F) The sphere-forming efficiency of 4-OHT-treated HMLE-Twist-ER cells, transduced with control shRNA (shControl) or p38 shRNA (shp38), was determined. […] (H) The sphere-forming efficiency of the indicated cells was determined in the presence of vehicle or SB203580. […] (J) The relative wound closure by the indicated cells, treated with vehicle or SB203580, was measured by image analysis and represented in a graphical format. […] Degradation of FITC-gelatin was quantified by image analysis. n=150 cells/sample. […]
# [5] = system: DU145 cells; experiment: Tumorsphere assay, DU145 cells; conditions: DU145, SB203580 5 μM, 7 days
# Protocol: Cell lines: Authenticated LNCaP, DU145, and PC3 cells were procured from ATCC and cultured in RPMI with 10% fetal bovine serum (FBS) with penicillin/streptomycin. Cells overexpressing EMT transcription factors and shRNA were also cultured in the same media. HEK293T cells were cultured in DMEM with 10% FBS and penicillin/streptomycin. All cell lines used for this study were recently confirmed negative for mycoplasma contamination.
# as §1
compound,measurement,setting,value
"C[S+]([O-])c1ccc(-c2nc(-c3ccc(F)cc3)c(-c3ccncc3)[nH]2)cc1 (centres unmarked) [SB203580, 4-(4-Fluorophenyl)-2-(4-methylsulfinylphenyl)-5-(4-pyridyl) 1H-imidazole]",Migratory potential,[1],significant reduction in migratory potential
same,Expression of EMT markers,[2],altered the expression of EMT markers
same,"FOXC2, mesenchymal and epithelial markers",[3],"suppresses the upregulation of FOXC2 and mesenchymal markers (fibronectin, vimentin) and prevents downregulation of the epithelial marker E-cadherin"
same,Degradation of underlying extracellular matrix (FITC-gelatin),[4],failed to do so to the same degree
same,Tumorsphere formation,[5],significant reduction
